Columns and labels:
[1] = test system: tat; details: literature, Green et al; cited from earlier work
[2] = test system: HIV (strain NL4-3); assay type: cell-based
From the text: Controls used water in place of peptide.

[3] = test system: truncated functional form of TAR RNA; assay: RNA gel mobility shift assay, TAR binding; set-up: species or system HIV; details: judged relative to tat(1-86) and the oligopeptide representing the tat basic domain; result in words
Procedure: This assay generally involves the incubation of a selected oligopeptide with gel-purified, radio-labelled TAR RNA, or tat-binding fragment of TAR RNA, that has been produced either by direct synthesis or through transcription of a corresponding DNA template. Samples are loaded onto non-denaturing polyacrylamide gel and subjected to electrophoresis, and then migration of labelled RNA through the gel is visualized on gel-exposed, X-ray film. Oligopeptides which bind TAR are identified in this assay by their characteristic, retarded migration on the gel, relative to TAR RNA to which no oligopeptide has bound. In this mobility shift assay, oligopeptides having an "enhanced" affinity for binding TAR RNA will resolve on the gel as bands which, in addition to displaying the retarded migration pattern characteristic of TAR-binding oligopeptides, will also appear with greater intensity and/or size than a band containing TAR RNA bound to tat (1-86).
(§1) TAR-binding affinity of the oligopeptides relative to HIV tat(1-86) and relative to tat fragments representing the tat basic domain, was evaluated by RNA gel mobility shift assay using as ligand a truncated functional form of TAR RNA having the sequence shown below.
Synthesis of the TAR fragment and its variant analogue was accomplished as described by Roy et al. in Genes and Development, 1990, 4:1365. […]

[4] = test system: variant of TAR which does not bind tat; assay: RNA gel mobility shift assay, binding to non-functional TAR variant (specificity); set-up: species or system HIV; details: relative to binding to the non-functional TAR variant; result in words
Procedure: as §1
Synthesis of the TAR fragment and its variant analogue was accomplished as described by Roy et al. in Genes and Development, 1990, 4:1365. The TAR-binding assay was also performed in the manner reported by Roy et al., supra, which is incorporated herein by reference.

[5] = test system: yeast tRNA; assay: TAR binding compared with yeast tRNA binding (specificity); details: result in words

Arg-Lys-Lys-Arg-Arg-Gln-Arg-Arg-Arg
tat antagonist activity [1]: Weak tat antagonist activity

CC(=O)N[C@H](CCCNC(=N)N)C(=O)N[C@H](CCCCN)C(=O)N[C@H](CCCCN)C(=O)N[C@H](CCCNC(=N)N)C(=O)N[C@H](CCCNC(=N)N)C(=O)N[C@H](CCC(N)=O)C(=O)N[C@H](CCCNC(=N)N)C(=O)N[C@H](CCCNC(=N)N)C(=O)N[C@H](CCCNC(=N)N)C(N)=O [peptide 4G]
effects on HIV inhibition ([2]; 5µM pretreatment of HuT78 cells, 7 or 14 days, result in words): positive effects on HIV inhibition

CC(=O)N[C@H](CCCNC(=N)N)C(=O)N[C@H](CCCNC(=N)N)C(=O)N[C@H](CCCNC(=N)N)C(=O)N[C@H](CCCNC(=N)N)C(=O)N[C@H](CCCNC(=N)N)C(=O)N[C@H](CCCNC(=N)N)C(=O)N[C@H](CCCNC(=N)N)C(=O)N[C@H](CCCNC(=N)N)C(=O)N[C@H](CCCNC(=N)N)C(N)=O [peptide 4C, acetyl-[D-Arg]9-NH2]
TAR-binding affinity [3]: comparable to the basic domain of wild type tat | specificity for binding to the functional TAR fragment [4]: comparable to the wild type basic domain | specificity of binding [5]: confirmed | inhibition of viral replication, as measured by p24 assay ([2]; HuT78 cells pretreated with 5µM peptide for 7 or 14 days, 10µM after infection, p24 at four and seven days after infection): ≥ 95% | formation of syncytia ([2]; visual inspection of infected HuT78 cells, same treatment as p24 assay): completely inhibited
